Like-named read-outs stand apart in the source and are kept apart here.
Columns and labels:
[1] = test system: PC9 cells (EGFR Exon 19 del, non-small cell lung cancer cells); assay: Cell viability assay (WST/CCK8), PC9 cells; type: cell-based; conditions: Homo sapiens, PC-9, PC9 (Exon19 Del), 72 hours, read-out: IC50 (half inhibitory concentration)
Excerpt: The cell lines with abnormal EGFR expression used are as follows: • HCC827 cells (EGFR Exon19 del, non-small cell lung cancer cells); • PC9 cells (EGFR Exon 19 del, non-small cell lung cancer cells); • PC9BracA1 (EGFR Exon 19 del+T790M, non-small cell lung cancer cells) • H1975 (EGFR Exon T790M+L858R mutation, non-small cell lung cancer cell line) • BT474 cells (HER2 positive breast cancer cells)
All of the half inhibitory concentrations (IC50) of these compounds of the present invention were determined with WST reagent from Fuyuan Biotec Company. The specific experiment procedures are as follows: Cancer cells were planted in 96-well-plate at the density of 3 000 cells per well with 100 μL RPMI1640 completed culture medium. In the next day, compounds with indicated concentrations were added to the cells, DMSO was used as the negative control and the EGFR TKIs were used to treat cells as the positive groups. After 72 hours drug treatment, cell viability was measured by using the WST reagent following the instructions.
The cells were treated with the gradient concentration of these compounds (the maximum concentration: 10 μM; 3-fold dilution ratio, 10 concentration gradients) for 72 hours and then incubated with the WST (CCK8) reagent to determine the cell viability.

[2] = test system: HCC827 cells (EGFR Exon19 del, non-small cell lung cancer cells); assay: Cell viability assay (WST/CCK8), HCC827 cells; type: cell-based; conditions: Homo sapiens, HCC827, 72 h, HCC827 (Exon19 Del), 72 hours, read-out: IC50 (half inhibitory concentration)
How it was run: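 Plated 3 000 cells/well in complete RPMI1640 the day before dosing; controls were DMSO (negative) and EGFR TKIs (positive).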

[3] = Table 4, gefitinib-based compounds, WST
[4] = Table 4, gefitinib and sapitinib-based compounds, WST

IC50 [1, 3] [nM] | IC50 [2, 4] [nM] | IC50 ([1]; WST (CCK8)) [nM] | IC50 ([2]; WST (CCK8)) [nM] | SMILES
317 | 43 | – | – | COc1cc2ncnc(Nc3ccc(F)c(Cl)c3)c2cc1OCCCN1CCN(C(=O)COCCSc2cccc3c2C(=O)N(C2CCC(=O)NC2=O)C3=O)CC1 (stereo not shown) [SIAIS184168, 4-((2-(2-(4-(3-((4-((3-chloro-4-fluorophenyl)amino)-7-methoxyquinazolin-6-yl)oxy)propyl)piperazin-1-yl)-2-oxoethoxy)ethyl)thio)-2-(2,6-dioxopiperidin-3-yl)isoindoline-1,3-dione]
318 | 22 | – | – | COc1cc2ncnc(Nc3ccc(F)c(Cl)c3)c2cc1OCCCN1CCN(C(=O)COCCOCCOCCSc2cccc3c2C(=O)N(C2CCC(=O)NC2=O)C3=O)CC1 (stereo not shown) [SIAIS184169, 4-((2-(2-(2-(2-(4-(3-((4-((3-chloro-4-fluorophenyl)amino)-7-methoxyquinazolin-6-yl)oxy)propyl)piperazin-1-yl)-2-oxoethoxy)ethoxy)ethoxy)ethyl)thio)-2-(2,6-dioxopiperidin-3-yl)isoindoline-1,3-dione]
– | – | 23.3 | 15.7 | COc1cc2ncnc(Nc3ccc(F)c(Cl)c3)c2cc1NC(=O)/C=C/CN1CCN(C(=O)CSc2cccc3c2CN(C2CCC(=O)NC2=O)C3=O)CC1 (stereo not shown) [SIAIS219185, (E)-N-(4-((3-chloro-4-fluorophenyl)amino)-7-methoxyquinazolin-6-yl)-4-(4-(2-((2-(2,6-dioxopiperidin-3-yl)-1-oxoisoindolin-4-yl)thio)acetyl)piperazin-1-yl)but-2-enamide]
– | – | 21.7 | 6 | COc1cc2ncnc(Nc3ccc(F)c(Cl)c3)c2cc1NC(=O)/C=C/CN1CCN(C(=O)CCSc2cccc3c2CN(C2CCC(=O)NC2=O)C3=O)CC1 (stereo not shown) [SIAIS219186, (E)-N-(4-((3-chloro-4-fluorophenyl)amino)-7-methoxyquinazolin-6-yl)-4-(4-(3-((2-(2,6-dioxopiperidin-3-yl)-1-oxoisoindolin-4-yl)thio)propanoyl)piperazin-1-yl)but-2-enamide]
– | – | 33.3 | 6.7 | COc1cc2ncnc(Nc3ccc(F)c(Cl)c3)c2cc1NC(=O)/C=C/CN1CCN(C(=O)CCCSc2cccc3c2CN(C2CCC(=O)NC2=O)C3=O)CC1 (stereo not shown) [SIAIS219187, (E)-N-(4-((3-chloro-4-fluorophenyl)amino)-7-methoxyquinazolin-6-yl)-4-(4-(4-((2-(2,6-dioxopiperidin-3-yl)-1-oxoisoindolin-4-yl)thio)butanoyl)piperazin-1-yl)but-2-enamide]
– | – | 25.1 | 3.1 | COc1cc2ncnc(Nc3ccc(F)c(Cl)c3)c2cc1NC(=O)/C=C/CN1CCN(C(=O)CCCCSc2cccc3c2CN(C2CCC(=O)NC2=O)C3=O)CC1 (stereo not shown) [SIAIS219188, (E)-N-(4-((3-chloro-4-fluorophenyl)amino)-7-methoxyquinazolin-6-yl)-4-(4-(5-((2-(2,6-dioxopiperidin-3-yl)-1-oxoisoindolin-4-yl)thio)pentanoyl)piperazin-1-yl)but-2-enamide]
– | – | 9.2 | 3.8 | COc1cc2ncnc(Nc3ccc(F)c(Cl)c3)c2cc1NC(=O)/C=C/CN1CCN(C(=O)CCCCCSc2cccc3c2CN(C2CCC(=O)NC2=O)C3=O)CC1 (stereo not shown) [SIAIS219189, (E)-N-(4-((3-chloro-4-fluorophenyl)amino)-7-methoxyquinazolin-6-yl)-4-(4-(6-((2-(2,6-dioxopiperidin-3-yl)-1-oxoisoindolin-4-yl)thio)hexanoyl)piperazin-1-yl)but-2-enamide]
– | – | 7.2 | 18.6 | COc1cc2ncnc(Nc3ccc(F)c(Cl)c3)c2cc1NC(=O)/C=C/CN1CCN(C(=O)CCCCCCSc2cccc3c2CN(C2CCC(=O)NC2=O)C3=O)CC1 (stereo not shown) [SIAIS219190, (E)-N-(4-((3-chloro-4-fluorophenyl)amino)-7-methoxyquinazolin-6-yl)-4-(4-(7-((2-(2,6-dioxopiperidin-3-yl)-1-oxoisoindolin-4-yl)thio)heptanoyl)piperazin-1-yl)but-2-enamide]
– | – | 8.9 | 16.4 | COc1cc2ncnc(Nc3ccc(F)c(Cl)c3)c2cc1NC(=O)/C=C/CN1CCN(C(=O)COCCSc2cccc3c2C(=O)N(C2CCC(=O)NC2=O)C3=O)CC1 (stereo not shown) [SIAIS219192, (E)-N-(4-((3-chloro-4-fluorophenyl)amino)-7-methoxyquinazolin-6-yl)-4-(4-(2-(2-((2-(2,6-dioxopiperidin-3-yl)-1,3-dioxoisoindolin-4-yl)thio)ethoxy)acetyl)piperazin-1-yl)but-2-enamide]
– | – | 43.6 | 2.2 | COc1cc2ncnc(Nc3ccc(F)c(Cl)c3)c2cc1NC(=O)/C=C/CN1CCN(C(=O)COCCSc2cccc3c2CN(C2CCC(=O)NC2=O)C3=O)CC1 (stereo not shown) [SIAIS219193, (E)-N-(4-((3-chloro-4-fluorophenyl)amino)-7-methoxyquinazolin-6-yl)-4-(4-(2-(2-((2-(2,6-dioxopiperidin-3-yl)-1-oxoisoindolin-4-yl)thio)ethoxy)acetyl)piperazin-1-yl)but-2-enamide]
– | – | 4 | 5.3 | COc1cc2ncnc(Nc3ccc(F)c(Cl)c3)c2cc1NC(=O)/C=C/CN1CCN(C(=O)CNc2cccc3c2C(=O)N(C2CCC(=O)NC2=O)C3=O)CC1 (stereo not shown) [SIAIS219194, (E)-N-(4-((3-chloro-4-fluorophenyl)amino)-7-methoxyquinazolin-6-yl)-4-(4-(2-((2-(2,6-dioxopiperidin-3-yl)-1,3-dioxoisoindolin-4-yl)amino)acetyl)piperazin-1-yl)but-2-enamide]
– | – | 167 | 23 | COc1cc2ncnc(Nc3ccc(F)c(Cl)c3)c2cc1NC(=O)/C=C/CN1CCN(C(=O)CSc2cccc3c2C(=O)N(C2CCC(=O)NC2=O)C3=O)CC1 (stereo not shown) [SIAIS249034, (E)-N-(4-((3-chloro-4-fluorophenyl)amino)-7-methoxyquinazolin-6-yl)-4-(4-(2-((2-(2,6-dioxopiperidin-3-yl)-1,3-dioxoisoindolin-4-yl)thio)acetyl)piperazin-1-yl)but-2-enamide]
– | – | 56.5 | 10 | COc1cc2ncnc(Nc3ccc(F)c(Cl)c3)c2cc1NC(=O)/C=C/CN1CCN(C(=O)CCSc2cccc3c2C(=O)N(C2CCC(=O)NC2=O)C3=O)CC1 (stereo not shown) [SIAIS249035, (E)-N-(4-((3-chloro-4-fluorophenyl)amino)-7-methoxyquinazolin-6-yl)-4-(4-(3-((2-(2,6-dioxopiperidin-3-yl)-1,3-dioxoisoindolin-4-yl)thio)propanoyl)piperazin-1-yl)but-2-enamide]
– | – | 47.7 | 8.1 | COc1cc2ncnc(Nc3ccc(F)c(Cl)c3)c2cc1NC(=O)/C=C/CN1CCN(C(=O)CCCSc2cccc3c2C(=O)N(C2CCC(=O)NC2=O)C3=O)CC1 (stereo not shown) [SIAIS249036, (E)-N-(4-((3-chloro-4-fluorophenyl)amino)-7-methoxyquinazolin-6-yl)-4-(4-(4-((2-(2,6-dioxopiperidin-3-yl)-1,3-dioxoisoindolin-4-yl)thio)butanoyl)piperazin-1-yl)but-2-enamide]
– | – | 28.7 | 6.6 | COc1cc2ncnc(Nc3ccc(F)c(Cl)c3)c2cc1NC(=O)/C=C/CN1CCN(C(=O)CCCCSc2cccc3c2C(=O)N(C2CCC(=O)NC2=O)C3=O)CC1 (stereo not shown) [SIAIS249037, (E)-N-(4-((3-chloro-4-fluorophenyl)amino)-7-methoxyquinazolin-6-yl)-4-(4-(5-((2-(2,6-dioxopiperidin-3-yl)-1,3-dioxoisoindolin-4-yl)thio)pentanoyl)piperazin-1-yl)but-2-enamide]
– | – | 22.9 | 4.7 | COc1cc2ncnc(Nc3ccc(F)c(Cl)c3)c2cc1NC(=O)/C=C/CN1CCN(C(=O)CCCCCSc2cccc3c2C(=O)N(C2CCC(=O)NC2=O)C3=O)CC1 (stereo not shown) [SIAIS249038, (E)-N-(4-((3-chloro-4-fluorophenyl)amino)-7-methoxyquinazolin-6-yl)-4-(4-(6-((2-(2,6-dioxopiperidin-3-yl)-1,3-dioxoisoindolin-4-yl)thio)hexanoyl)piperazin-1-yl)but-2-enamide]
– | – | 18.7 | 5.2 | COc1cc2ncnc(Nc3ccc(F)c(Cl)c3)c2cc1NC(=O)/C=C/CN1CCN(C(=O)CCCCCCSc2cccc3c2C(=O)N(C2CCC(=O)NC2=O)C3=O)CC1 (stereo not shown) [SIAIS249039, (E)-N-(4-((3-chloro-4-fluorophenyl)amino)-7-methoxyquinazolin-6-yl)-4-(4-(7-((2-(2,6-dioxopiperidin-3-yl)-1,3-dioxoisoindolin-4-yl)thio)heptanoyl)piperazin-1-yl)but-2-enamide]

Source: patent US12564638B2 (SHANGHAITECH UNIVERSITY, priority 2019, dated 2026)
